Among the data in PubChem BioAssay AID392 (SGCOxCompounds, 2006) are Tm shift values, retold here.

For this assay, the target named is Peroxisomal trans-2-enoyl-CoA reductase (Homo sapiens) (UniProt Q9BY49). Nature of the assay: PECR reductase ligand binding by thermal shift, biophysical, human, DSF, SYPRO orange, NADP+ (AID 392). To be noted: recombinant PECR, protein 2 µM, buffer 10 mM HEPES, pH 7.5, NaCl 150 mM, stronger effect = higher value.

Each structure is given as a SMILES string.

Sequence of Peroxisomal trans-2-enoyl-CoA reductase (Homo sapiens) (Q9BY49 whole entry, looked up): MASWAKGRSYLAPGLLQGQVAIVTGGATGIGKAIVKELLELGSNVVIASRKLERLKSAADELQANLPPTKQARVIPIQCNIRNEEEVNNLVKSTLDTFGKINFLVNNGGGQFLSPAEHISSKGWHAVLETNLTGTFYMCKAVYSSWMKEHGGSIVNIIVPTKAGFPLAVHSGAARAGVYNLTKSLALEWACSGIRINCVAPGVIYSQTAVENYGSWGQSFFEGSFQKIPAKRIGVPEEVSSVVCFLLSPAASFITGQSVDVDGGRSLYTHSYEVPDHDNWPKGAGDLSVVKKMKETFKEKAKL

Take `NC(=O)c1ccc[n+](C2OC(COP(=O)(O)OP(=O)(O)OCC3OC(n4cnc5c(N)ncnc54)C(O)C3O)C(O)C2O)c1` (stereo not drawn): the Tm shift (at 10 µM, NADP 200 µM) was 2.2 Celsius.

For the molecule `NC(=O)c1ccc[n+](C2OC(COP(=O)(O)OP(=O)(O)OCC3OC(n4cnc5c(N)ncnc54)C(OP(=O)(O)O)C3O)C(O)C2O)c1` (stereo not drawn), the Tm shift (at 10 µM, NADP 200 µM) was 2.2 Celsius.

As for `C[C@@]12CCC3=C(CCc4cc(O)ccc43)[C@H]1CCC2=C(F)F`, where the note is “at 100 µM, NADP+ 200 µM”, the Tm shift was 3.7 Celsius.

Take `O=c1oc2cc(O)ccc2c2oc3cc(O)ccc3c12`: the Tm shift (at 10 µM, NADP 200 µM) came out at 2.2 Celsius.

On to `CCCCCCCCCC(=O)SCCNC(=O)CCNC(=O)C(O)C(C)(C)COP(=O)(O)OP(=O)(O)OCC1OC(n2cnc3c(N)ncnc32)C(O)C1OP(=O)(O)O` (stereo not drawn), for which, under “at 100 µM, NADP+ 200 µM”, the Tm shift was 4.1 Celsius.

Consider `C[C@@]12CCC3=C(CCc4cc(O)ccc43)[C@]13C[C@@H]3CC2=C(F)F`, for which the Tm shift (at 100 µM, NADP+ 200 µM) was 23.8 Celsius.

For `C=CC1=C(C)/C(=C/c2[nH]c(Cc3[nH]c(/C=C4\NC(=O)C(C)=C4C=C)c(C)c3CCC(=O)O)c(CCC(=O)O)c2C)NC1=O`, where the note is “at 100 µM, NADP+ 200 µM”, the Tm shift was 10 Celsius.

As to `CCc1nnc(NS(=O)(=O)c2ccc(NC(=O)/C=C/c3ccc(F)cc3)cc2)s1`, the Tm shift (at 10 µM, NADP 200 µM) amounted to 2.4 Celsius.

`O=C(C1CCC(CNS(=O)(=O)c2ccc(Br)s2)CC1)N1CCN(C(c2ccccc2)c2ccc(Cl)cc2)CC1` (stereo not drawn): the Tm shift (at 10 µM, NADP 200 µM) was determined as 2.3 Celsius.

For the molecule `O=C1Nc2ccccc2C1=O`, the Tm shift (at 100 µM, NADP+ 200 µM) is 6.4 Celsius.

For `O=C(O[C@@H]1Cc2c(O)cc(O)cc2O[C@H]1c1ccc(O)c(O)c1)c1cc(O)c(O)c(O)c1`, the Tm shift (at 10 µM, NADP+ 200 µM) is 12.6 Celsius.

`O=C1C2(Cl)C3(Cl)C4(Cl)C(Cl)(Cl)C5(Cl)C3(Cl)C1(Cl)C5(Cl)C24Cl` (stereo not drawn): the Tm shift (at 100 µM, NADP+ 200 µM) is 3.1 Celsius.

Consider `O=C(C1CCN(S(=O)(=O)c2ccc(Br)s2)CC1)N1CCN(C(c2ccccc2)c2ccc(Cl)cc2)CC1` (stereo not drawn), for which, for the setting “at 10 µM, NADP 200 µM”, the Tm shift turned out to be 2.1 Celsius.
